Data set [1] in a line: Solubility. The settings on record: for solubility in organic solvents: chloroform, ethyl acetate. It counts as physicochemical.
A short description of data set [2]: Stability. It counts as physicochemical.
Data set [3] concerns Escherichia coli K-12-R. Briefly: Minimum inhibitory concentration, standard serial dilution method on Heart Infusion agar. It counts as cell-based. The settings on record: 16 h. As for the experimental part:
(§1) Antibacterial activity of SF-2052 substance of this invention (as the sulfate) to inhibit the growth of various bacteria was estimated according to a standard serial dilution method using Heart Infusion agar as the incubation medium. The incubation was made at a temperature of 37° C. for 16 hours.

The subject of data set [4] is Proteus vulgaris. Described as above. It counts as cell-based. The settings on record: 37° C., 16 hours. As for the experimental part:
as §1

Data set [5] has as its system Mycobacterium smegmatis 607 Sm-R. The data set is described as above. The data set is classed as cell-based. The settings on record: Mycolicibacterium smegmatis, 607SMR, 16 h. Here is the method:
as §1

Data set [6] deals with Staphylococcus aureus 209P. The data set is described as above. The data set is classed as cell-based. The settings on record: 37° C., 16 hours. Here is the method:
as §1

Data set [7] concerns Pseudomonas aeruginosa. The data set is described as above. The settings on record: 37° C., 16 hours. The data set is classed as cell-based. As for the experimental part:
as §1

Data set [8] concerns Escherichia coli. The description is as above. It counts as cell-based. The settings on record: 37° C., 16 hours. Here is the method: as §1
Data set [9] concerns Escherichia coli B. The description is as above. It counts as cell-based. The settings on record: 37° C., 16 hours. As for the experimental part: as §1
The subject of data set [10] is Sarcina lutea. Described as above. It counts as cell-based. The settings on record: Micrococcus luteus, 37° C., 16 hours. Here is the method:
as §1

Data set [11] has as its system Bacillus subtillis PCI-219. Described as above. The data set is classed as cell-based. The settings on record: PCI219, 37° C., 16 hours. Here is the method: as §1
For data set [12], the system named is Mycobacterium smegmatis 607 Km-R. The description is as above. The data set is classed as cell-based. The settings on record: Mycolicibacterium smegmatis, 607KMR, 16 h. As for the experimental part:
as §1

The test system of data set [13] is Klebsiella pneumonia. The data set is described as above. The settings on record: Klebsiella pneumoniae, 37° C., 16 hours. It counts as cell-based. Here is the method:
as §1

The nature of data set [14]: Acute toxicity, intravenous injection in mice. It counts as in vivo. The settings on record: mouse, in vivo, solution in isotonic aqueous sodium chloride, estimated. The source says: (§2) For determination of acute toxicity of the SF-2052 substance sulfate, this was intravenously injected as its solution in isotonic aqueous solution of sodium chloride into several groups of mice. […] According to this invention, therefore, there is further provided an antibacterial composition comprising as the active ingredient an antibacterially effective amount of at least one of the pharmaceutically acceptable acid-addition salts of the SF-2052 substance, in association with a pharmaceutically acceptable liquid or solid carrier. The content of this active ingredient in this antibacterial composition may be in a range of 5% to 50% by weight of the composition.

The test system of data set [15] is mice. Kind of data set: Acute toxicity, intravenous injection in mice. The settings on record: in words. It counts as in vivo.
From the text: as §2

The test system of data set [16] is gram-negative and gram-positive bacteria. Kind of data set: Antibacterial activity, summary of Table 1. The data set is classed as cell-based. The settings on record: against both gram-negative and gram-positive bacteria. As for the experimental part:
as §1

Data on three molecules can be found in patent publication US4242327A, “Antibiotic SF-2052 substance and production and use thereof” (Meiji Seika Kaisha, Ltd., priority 1978, dated 1980).

“Also recorded” adds a separate entry of the source. Structures can show the parent of a compound that is named as a salt.

Broadly, the MIC is the lowest concentration found to suppress growth. Usually LD50 stands for the dose at which mortality reaches 50%.

Regarding `COC1C(O)C(N)C(OC2OC(C(C)N)CCC2N)C(O)C1N(C)C(=O)CNC=N` (stereo not drawn) [SF-2052 substance hydrochloride], the “solubility in organic solvents” value was “substantially insoluble” in [1] (hexane, benzene and ethylether etc.); “insoluble” in data set [1] (benzene and ethylether). In [1] (methanol), the solubility in methanol entry is on record as “soluble in methanol”. Moreover, the solubility in water entry in data set [1] (water) is given as “Easily soluble in water; also recorded: readily soluble in water”. Also, in [2] (acidic to neutral pH), the “stability under acidic to neutral pH conditions” value is given as “Relatively stable; also recorded: substantially stable”. Also, the “stability under alkaline pH conditions” value in data set [2] is recorded as “instable”.
For `COC1C(O)C(N)C(OC2OC(C(C)N)CCC2N)C(O)C1N(C)C(=O)CNC=N` (stereo not drawn) [SF-2052 substance sulfate], the MIC in data set [3] was 3.12 µg/mL; in data set [4], 1.56 µg/mL; in [5], 1.56 µg/mL; in data set [6] it was 3.12 µg/mL; in data set [7] it was 100 µg/mL; in [8], 12.5 µg/mL. For the same molecule, the MIC in [9] is 6.25 µg/mL; in data set [10], 0.78 µg/mL; in data set [11] it was 1.56 µg/mL; in data set [12] it was 100 µg/mL; in [13], 3.12 µg/mL. Besides, in [14], the LD50 was 350 mg/kg. Besides, the acute toxicity entry in data set [15] is recorded as “substantially non-toxic”.
Turning to `COC1C(O)C(N)C(OC2OC(C(C)N)CCC2N)C(O)C1N(C)C(=O)CNC=N` (stereo not drawn) [SF-2052 substance], the antibacterial activity entry in data set [16] is “high antibacterial activity against both gram-negative and gram-positive bacteria”. Besides, the “stability under alkaline pH conditions” value in data set [2] is recorded as “very instable; also recorded: instable”.
